Data: the supplement of paper PMC10307832

Tests used:
Assay in all cases: relative viability (nuclei count vs DMSO), 5 days (fraction); higher = more cells survive
[1] = compound: CC1=CC=C(C=C1)C(=O)CN2C3=C(CCCC3)SC2=N [Pifithrin_alpha] + CC(=O)Nc1cccc(-n2c(=O)n(C3CC3)c(=O)c3c(Nc4ccc(I)cc4F)n(C)c(=O)c(C)c32)c1 [Trametinib] (partner 0.02 µM)
Outline: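 The day after seeding in 1536-well plates, lung cancer cell lines were treated by pin tool with a single drug, or with a fixed anchor-drug dose together with five library-drug doses (not always all listed) in √10 steps. After 5 days, a combined fix-and-stain solution (final 0.05% Triton X-100, 1% formaldehyde, 1 ug/ml Hoechst) was added. Nuclei counted on 4× images gave relative viability as treated counts over vehicle counts, reported as the median of duplicate plates.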

Pifithrin_alpha = compound: CC1=CC=C(C=C1)C(=O)CN2C3=C(CCCC3)SC2=N [Pifithrin_alpha]
Outline: (§1)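 Vehicle-anchored 1536-well plates of lung cancer cell lines, held overnight at 37 °C, were pinned with five library-drug doses (not always all listed) spaced by √10. No medium change followed over the next 5 days, after which the cells were fixed, permeabilised and Hoechst-stained together and imaged at 4×. Nuclei were counted with MetaXpress, and viability is treated-well nuclei over vehicle-well nuclei, taken as a median across plates. Plates passed with control CV below 25% and at least one doubling.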

Axitinib = compound: CNC(=O)c1ccccc1Sc1ccc2c(/C=C/c3ccccn3)n[nH]c2c1 [Axitinib]
Outline: as §1

Bemcentinib = compound: Nc1nc(Nc2ccc3c(c2)CC[C@@H](N2CCCC2)CC3)nn1-c1cc2c(nn1)-c1ccccc1CCC2 [Bemcentinib]
Outline: as §1

Cell Line	relative viability ([1]; first compound 3.162 µM)	relative viability ([1]; first compound 31.62 µM)	relative viability ([1]; first compound 100 µM)	relative viability (Pifithrin_alpha; 1 µM)	relative viability (Pifithrin_alpha; 3.162 µM)	relative viability (Pifithrin_alpha; 10 µM)	relative viability (Pifithrin_alpha; 31.62 µM)	relative viability (Pifithrin_alpha; 100 µM)	relative viability (Axitinib; 0.005 µM)	relative viability (Axitinib; 0.05 µM)	relative viability (Axitinib; 0.1581 µM)	relative viability (Axitinib; 0.5 µM)	relative viability (Bemcentinib; 0.04 µM)	relative viability (Bemcentinib; 0.1265 µM)	relative viability (Bemcentinib; 0.4 µM)	relative viability (Bemcentinib; 1.265 µM)	relative viability (Bemcentinib; 4 µM)	relative viability ([1]; first compound 1 µM)	relative viability ([1]; first compound 10 µM)	relative viability (Axitinib; 0.01581 µM)
PC-3 [JPC-3]	0.648	0.614	0.487	0.73	1.03	0.934	0.949	0.932	1.08	1.1	1.03	1.2	0.978	1.06	1.12	1.05	1.06			
HCC-366	0.248		0.187	1.01	0.974	1.01		1.04	0.99	1.06	1	1.04	1.07	1.07	0.987	0.986	0.995	0.249	0.238	0.999
NCI-H2405	0.604	0.567	0.601	0.733	0.962	0.904	0.876	0.921	1	1.14	0.973	0.95	0.944	1.03	1.01	1	1.08		0.544	1.04
LU99A	0.601		0.575	0.941	0.89	0.903		0.869	0.903	1.03	0.883	0.904	0.903	1.02	0.98	1.02	1.02	0.458	0.573	1.02
LCLC-97TM1	0.167		0.18		0.934	1.13		0.975	1.06	0.986	0.892	0.822	0.997	1.09	0.801	1.03	0.982		0.191	1.02
A-427	0.727	0.6	0.552	0.975	0.957	0.804	0.788	1.02	1.02	1.02	1.02	0.964	0.935	1.11	1.05	0.93	0.931	0.682	0.688	0.93
EMC-BAC-2	0.89	0.706	0.794	0.716	1.02	0.617	0.799	0.93	1	0.977	0.957	0.771	0.956	0.939	1.07	0.955	0.978			0.925
NCI-H2228	0.482	0.384	0.436	0.99	1.03	0.97	0.93	1.05	1.09	1.05	1.05	1.03	0.8	1.13	1.05	0.96	1.22	0.611	0.499	0.943
IA-LM				0.853	0.993	0.555	0.491	0.418	1.03	0.987	0.999	0.88	0.946	1.19	0.975	0.995	0.977			0.954
NCI-H838	0.425	0.391	0.391	0.856	0.807	0.854	0.735	0.643	0.992	1.01	0.933	1.03	0.946	1.08	1	1.02	1.03	0.458	0.452	0.944
COR-L 105	0.424	0.421	0.454	0.792	0.841	0.862	0.695	0.758	0.995	1.02	0.868	1.2	0.726	0.964	1.06	0.912	1.04	0.259	0.432	0.786
NCI-H358	0.124	0.12	0.121	0.825	0.94	0.924	0.733	0.945	0.947	1.05	0.87	1.14	0.915	0.941	0.997	1.01	1.07	0.138	0.129	0.957
SK-MES-1	0.518	0.36	0.403	0.893	0.927	0.901	0.726	0.815	1.03	1.01	0.976	1.06	1.03	1.09	1.07	1.11	1.11	0.593	0.462	0.998
LCLC-103H	0.597	0.623	0.702	0.996	0.974	0.959	0.848	0.887	0.946	1	0.959	0.867	0.992	1.07	0.96	1.04	0.994	0.681	0.646	0.973
HARA	0.695	0.493	0.45	0.906	0.783	0.916	0.65	0.853	1.05	0.887	0.756	1.12	0.899	1.28	0.995	0.82	0.951	0.557	0.836	0.79
ABC-1				0.523	0.85	0.788	0.55	0.731	0.945	0.985	0.812	1.08	0.78	1.14	1.16	0.865	0.984			0.863
NCI-H727	0.403	0.409	0.361	0.829	0.841	0.883	0.587	0.837	1.01	0.991	0.86	0.972	0.869	1.08	1.19	1.01	1.2	0.374	0.388	0.881
